Assay results reported in patent US11560372B2, “Heterocyclic compounds useful as modulators of acetylcholine receptors” (TAKEDA PHARMACEUTICAL COMPANY LIMITED, priority 2017, dated 2023).

target: T1, MDR1 (Homo sapiens, UniProt P08183); assay: MDR1 membrane permeability test; assay type: in vitro ADME; details: pH 7.4, efflux ratio (ER), Papp B to A / A to B, human MDR1-expressing LLC-PK1 cells, read-out: MDR1 substrate screening 1 μM (MDRSUB1)/Ratio (NUMBER)
T1 construct: expressed in transfected cells
Experimental: MDR1 Membrane Permeability Test
When MDR1 is expressed in excess in LLC-PK1 cell, which is a polar cell, MDR1 is localized in apical membrane (A), thus promoting transcellular transport from the basement membrane side (B) toward direction A. When a ratio to the transcellular transport in the opposite direction is taken and a ratio to a control cell in which a mock vector has been introduced is further taken, an efflux ratio of MDR1 to simple diffusion (corrected efflux ratio) is calculated. Similarly, when a brain/plasma concentration ratio in Mdr1(−/−) mouse is divided by a brain/plasma concentration ratio in wild-type mouse, an efflux ratio of Mdr1 to simple diffusion in BBB (Kp, brain ratio, higher value means lower central nervous system permeability) is calculated. Adachi Y. et al. (Reference 1) has reported a positive correlation between corrected efflux ratio and Kp, brain ratio (FIG. 5(C)), and efflux ratio in MDR1 expressing cell and Kp, brain ratio (FIG. 5(B)).
To confirm the central nervous system permeability of the compounds of the present invention, a MDR1 membrane permeability test was performed by the following method.
Human MDR1-expressing LLC-PK1 cells were cultured according to the report of Takeuchi et al. (Reference 2). Human MDR1-expressing LLC-PK1 cells were cultured in 10% fetal bovine serum (Invitrogen), 500 μg/ml G418 (Invitrogen), 150 ng/ml colchicine-containing M199 medium (Invitrogen) under 5% CO2 conditions at 37° C.
Transcellular transport was performed according to the report of Sugimoto et al. (Reference 3). The cells were cultured for 3 days on HTS Transwell (registered trademark) 96 well permeable support (pore size 0.4 μm, 0.143 cm^2 surface area, Corning Life Sciences) having polyethylene terephthalate membrane on which the cells had been seeded at 3.45×10^4 cells/well. After preincubation in M199 medium (containing 10 mmol/L HEPES, 1% BSA, pH 7.4) for 30 min, a drug solution (10 μmol/L digoxin, 200 μmol/L LY, […]) dissolved in M199 medium was added to the apical side or basolateral side of the Transwell by 75 or 250 μL each and the cells were cultured under 5% CO2 conditions at 37° C. After 1 hr, the sample was collected from the side opposite to the side where the drug solution was added, and the concentration of the test compound was measured by LC-MS/MS. As an internal standard substance, 100 ng/mL alprenolol and diclofenac were used. The analysis conditions were as follows.
Papp, A to B and Papp, B to A (apparent permeability) were calculated from the formula (1), and the efflux ratio (ER) was calculated from the formula (2).

T1 sequence (P08183 whole entry): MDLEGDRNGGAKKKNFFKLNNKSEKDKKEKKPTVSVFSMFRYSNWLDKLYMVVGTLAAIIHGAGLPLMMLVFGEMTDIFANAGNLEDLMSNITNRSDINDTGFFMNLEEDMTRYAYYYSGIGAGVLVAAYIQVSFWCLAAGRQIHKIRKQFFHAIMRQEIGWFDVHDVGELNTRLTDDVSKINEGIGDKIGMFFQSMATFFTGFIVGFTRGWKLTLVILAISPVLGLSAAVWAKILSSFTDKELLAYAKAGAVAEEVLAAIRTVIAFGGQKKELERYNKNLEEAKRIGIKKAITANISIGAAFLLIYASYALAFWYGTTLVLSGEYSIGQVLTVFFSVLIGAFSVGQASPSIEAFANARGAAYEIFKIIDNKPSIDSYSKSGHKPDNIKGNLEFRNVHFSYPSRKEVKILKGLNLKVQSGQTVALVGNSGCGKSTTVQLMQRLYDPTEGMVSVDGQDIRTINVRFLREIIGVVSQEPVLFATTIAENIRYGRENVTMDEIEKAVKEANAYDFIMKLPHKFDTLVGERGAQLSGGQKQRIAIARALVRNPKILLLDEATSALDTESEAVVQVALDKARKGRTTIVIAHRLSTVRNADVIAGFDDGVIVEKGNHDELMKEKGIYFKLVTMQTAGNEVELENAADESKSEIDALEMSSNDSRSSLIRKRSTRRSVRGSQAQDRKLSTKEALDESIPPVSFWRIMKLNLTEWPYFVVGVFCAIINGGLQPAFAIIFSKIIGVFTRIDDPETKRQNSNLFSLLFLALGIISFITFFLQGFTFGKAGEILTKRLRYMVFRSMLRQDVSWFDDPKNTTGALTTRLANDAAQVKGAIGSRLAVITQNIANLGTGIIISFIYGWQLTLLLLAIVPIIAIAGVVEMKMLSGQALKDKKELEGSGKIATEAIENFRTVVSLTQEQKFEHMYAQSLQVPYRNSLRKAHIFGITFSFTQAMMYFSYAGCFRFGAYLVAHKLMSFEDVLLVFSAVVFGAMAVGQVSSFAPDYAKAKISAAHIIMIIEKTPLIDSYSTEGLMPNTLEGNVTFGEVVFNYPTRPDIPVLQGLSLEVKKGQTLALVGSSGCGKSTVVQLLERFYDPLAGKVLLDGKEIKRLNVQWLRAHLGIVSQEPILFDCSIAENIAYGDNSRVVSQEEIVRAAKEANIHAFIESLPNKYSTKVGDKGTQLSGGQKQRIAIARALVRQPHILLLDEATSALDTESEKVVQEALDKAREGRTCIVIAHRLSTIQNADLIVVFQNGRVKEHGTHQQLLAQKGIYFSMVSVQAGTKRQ

Compared with `Cc1c(Cc2ccc(C(=O)NC3(C)CC3)cc2)cc2c(=O)n([C@H]3CCOC[C@@H]3O)cnc2c1C` [Example 43, 1,5-anhydro-2,3-dideoxy-3-(7,8-dimethyl-6-(4-((1-methylcyclopropyl)carbamoyl)-benzyl)-4-oxoquinazolin-3 (4H)-yl)-L-threo-pentitol], `Cc1c(Cc2ccc(C(=O)NC3CC3)cc2)cc2c(=O)n([C@H]3CCOC[C@@H]3O)cnc2c1C` [Example 44, 1,5-anhydro-3-(6-(4-(cyclopropylcarbamoyl)benzyl)-7,8-dimethyl-4-oxoquinazolin-3 (4H)-yl)-2,3-dideoxy-L-threo pentitol] is higher in efflux ratio at 1 hr, 1 μM: 12 for the first, 22 for the second.

First: Cc1c(Cc2ccc(C(=O)NCC3CCCO3)cc2)cc2c(=O)n([C@H]3CCOC[C@@H]3O)cnc2c1C (stereo partly drawn) [Example 45, 1,5-anhydro-2,3-dideoxy-3-(7,8-dimethyl-4-oxo-6-(4-((tetrahydrofuran-2-ylmethyl)carbamoyl)benzyl)quinazolin-3 (4H)-yl)-L-threo-pentitol]
Second: Cc1c(Cc2ccc(C(=O)NCC3CCOCC3)cc2)cc2c(=O)n([C@H]3CCOC[C@@H]3O)cnc2c1C [Example 51, 1,5-anhydro-2,3-dideoxy-3-(7,8-dimethyl-4-oxo-6-(4-((tetrahydro-2H-pyran-4-ylmethyl)carbamoyl)-benzyl)quinazolin-3 (4H)-yl)-L-threo-pentitol]
The efflux ratio at 1 hr, 1 μM of the first is lower: 23 for the first, 27 for the second.

Compared with `Cc1c(Cc2ccc(C(=O)NC3CC(F)C3)cc2)cc2c(=O)n([C@H]3CCOC[C@@H]3O)cnc2c1C` (stereo partly drawn) [Example 46, 1,5-anhydro-2,3-dideoxy-3-(6-(4-((3-fluorocyclobutyl)-carbamoyl)benzyl)-7,8-dimethyl-4-oxoquinazolin-3 (4H)-yl)-L-threo-pentitol], `Cc1c(Cc2ccc(C(=O)NCCC(F)(F)F)cc2)cc2c(=O)n([C@H]3CCOC[C@@H]3O)cnc2c1C` [Example 53, 1,5-anhydro-2,3-dideoxy-3-(7,8-dimethyl-4-oxo-6-(4-((3,3,3-trifluoropropyl)carbamoyl)-benzyl)quinazolin-3 (4H)-yl)-L-threo-pentitol] is lower in efflux ratio at 1 hr, 1 μM: 18 for the first, 8.3 for the second.

First: Cc1c(Cc2ccc(C(=O)NCCN3CCOCC3)cc2)cc2c(=O)n([C@H]3CCOC[C@@H]3O)cnc2c1C [Example 47, 1,5-anhydro-2,3-dideoxy-3-(7,8-dimethyl-6-(4-((2-(morpholin-4-yl)ethyl)carbamoyl)benzyl)-4-oxoquinazolin-3 (4H)-yl)-L-threo-pentitol]
Second: Cc1c(Cc2ccc(C(=O)NCCN3CCCC3)c(F)c2)cc2c(=O)n([C@H]3CCOC[C@@H]3O)cnc2c1C [Example 78, 1,5-anhydro-2,3-dideoxy-3-(6-(3-fluoro-4-((2-(pyrrolidin-1-yl)ethyl)carbamoyl)benzyl)-7,8-dimethyl-4-oxoquinazolin-3 (4H)-yl)-L-threo-pentitol]
The efflux ratio at 1 hr, 1 μM of the first is lower: 24 for the first, 56 for the second.

First: Cc1c(Cc2ccc(C(=O)NC(C)(C)CO)cc2)cc2c(=O)n([C@H]3CCOC[C@@H]3O)cnc2c1C [Example 48, 1,5-anhydro-2,3-dideoxy-3-(6-(4-((1-hydroxy-2-methylpropan-2-yl)carbamoyl)benzyl)-7,8-dimethyl-4-oxoquinazolin-3 (4H)-yl)-L-threo-pentitol]
Second: Cc1c(Cc2ccc(C(=O)N3CC(C(F)F)C3)cc2)cc2c(=O)n([C@H]3CCOC[C@@H]3O)cnc2c1C [Example 52, 1,5-anhydro-2,3-dideoxy-3-(6-(4-((3-(difluoromethyl)azetidin-1-yl)carbonyl)benzyl)-7,8-dimethyl-4-oxoquinazolin-3 (4H)-yl)-L-threo-pentitol]
The efflux ratio at 1 hr, 1 μM of the first is higher: 24 for the first, 18 for the second.

Compared with `CNC(=O)c1ccc(Cc2cc3c(=O)n([C@H]4CCOC[C@@H]4O)nnc3c(C)c2C)cc1F` [Example 55, 1,5-anhydro-2,3-dideoxy-3-(6-(3-fluoro-4-(methylcarbamoyl)benzyl)-7,8-dimethyl-4-oxo-1,2,3-benzotriazin-3 (4H)-yl)-L-threo-pentitol], `Cc1c(Cc2ccc(C(=O)NCCF)c(F)c2)cc2c(=O)n([C@H]3CCOC[C@@H]3O)cnc2c1C` [Example 67, 1,5-anhydro-2,3-dideoxy-3-(6-(3-fluoro-4-((2-fluoroethyl)carbamoyl)benzyl)-7,8-dimethyl-4-oxoquinazolin-3 (4H)-yl)-L-threo-pentitol] is higher in efflux ratio at 1 hr, 1 μM: 3.2 for the first, 5.3 for the second.

First: CNC(=O)c1ccc(Cc2cc3c(=O)n([C@H]4CCOC[C@@H]4O)cnc3cc2OC)cc1F [Example 57, 1,5-anhydro-2,3-dideoxy-3-(6-(3-fluoro-4-(methylcarbamoyl)benzyl)-7-methoxy-4-oxoquinazolin-3 (4H)-yl)-L-threo-pentitol]
Second: COc1cc2ncn([C@H]3CCOC[C@@H]3O)c(=O)c2cc1Cc1ccc(-c2ccn(C)n2)nc1 [Example 63, 1,5-anhydro-2,3-dideoxy-3-(7-methoxy-6-((6-(1-methyl-1H-pyrazol-3-yl)pyridin-3-yl)methyl)-4-oxoquinazolin-3 (4H)-yl)-L-threo-pentitol]
The efflux ratio at 1 hr, 1 μM of the first is lower: 16 for the first, 35 for the second.

Going from `COc1cc2ncn([C@H]3CCOC[C@@H]3O)c(=O)c2cc1Cc1ccc(-c2cn(C)nn2)nc1` [Example 64, 1,5-anhydro-2,3-dideoxy-3-(7-methoxy-6-((6-(1-methyl-1H-1,2,3-triazol-4-yl)pyridin-3-yl)methyl)-4-oxoquinazolin-3 (4H)-yl)-L-threo-pentitol] to `Cc1c(Cc2ccc(-c3cnn(C(C)(C)C)c3)nc2)cc2c(=O)n([C@H]3CCOC[C@@H]3O)cnc2c1C` [Example 72, 1,5-anhydro-3-(6-((6-(1-tert-butyl-1H-pyrazol-4-yl)pyridin-3-yl)methyl)-7,8-dimethyl-4-oxoquinazolin-3(4H)-yl)-2,3-dideoxy-L-threo-pentitol], the efflux ratio at 1 hr, 1 μM falls from 36 to 2.9.

First: Cc1c(Cc2ccc(C(=O)NCCCS(C)(=O)=O)c(F)c2)cc2c(=O)n([C@H]3CCOC[C@@H]3O)cnc2c1C [Example 70, 1,5-anhydro-2,3-dideoxy-3-(6-(3-fluoro-4-((3-(methylsulfonyl)propyl)-carbamoyl)benzyl)-7,8-dimethyl-4-oxoquinazolin-3 (4H)-yl)-L-threo-pentitol]
Second: Cc1c(Cc2ccc(C(=O)N[C@H]3CCOC[C@@H]3O)c(F)c2)cc2c(=O)n([C@H]3CCOC[C@@H]3O)cnc2c1C [Example 88, 2-fluoro-N-((3R,4S)-3-hydroxytetrahydro-2H-pyran-4-yl)-4-((3-((3R,4S)-3-hydroxytetrahydro-2H-pyran-4-yl)-7,8-dimethyl-4-oxo-3,4-dihydroquinazolin-6-yl)methyl)benzamide]
The efflux ratio at 1 hr, 1 μM of the first is lower: 13 for the first, 16 for the second.

Compared with `Cc1c(Cc2ccc(-c3cnn(CC(F)(F)F)c3)nc2)cc2c(=O)n([C@H]3CCOC[C@@H]3O)cnc2c1C` [Example 74, 1,5-anhydro-2,3-dideoxy-3-(7,8-dimethyl-4-oxo-6-((6-(1-(2,2,2-trifluoroethyl)-1H-pyrazol-4-yl)pyridin-3-yl)methyl)quinazolin-3(4H)-yl)-L-threo-pentitol], `Cc1c(Cc2ccc(-c3cnn(CC(=O)N(C)C)c3)nc2)cc2c(=O)n([C@H]3CCOC[C@@H]3O)cnc2c1C` [Example 82, 1,5-anhydro-2,3-dideoxy-3-(6-((6-(1-(2-(dimethylamino)-2-oxoethyl)-1H-pyrazol-4-yl)pyridin-3-yl)methyl)-7,8-dimethyl-4-oxoquinazolin-3(4H)-yl)-L-threo-pentitol] is higher in efflux ratio at 1 hr, 1 μM: 7.1 for the first, greater than 18 for the second.
